Results taken from patent US20240216401A1, “COMBINATION THERAPY BY USING AKR1C3-ACTIVATED COMPOUND WITH IMMUNE CHECKPOINT INHIBITOR” (OBI Pharma, Inc., priority 2021, published 2024).
“And” between values parts separate entries of the source, which are not always exact repeats. Identical values can stand only once.

Assays:
Format in all cases: in vivo, Mus musculus
[1] = system: PD-L1^+ cells in tumor-infiltrating lymphocytes; assay: Example 2: flow cytometry, percentage of PD-L1^+ cells in TILs
Experimental: (§1) Mice were sacrificed by CO2 euthanasia at the end of the study duration, and the connective tissue around tumor was resected. The tumor samples were then weighed and cut equally into three sections if the tumor weight over 400 mg. The tumor tissue was prepared for the isolation of tumor-infiltrating lymphocytes (TILs). The rest of one section was fixed in 10% formaldehyde and embedded in paraffin; the other was stored at a temperature below −70° C.
(§2) The tumor samples were dissected into smaller fragments using scalpels and then digested with a cocktail of collagenase, DNase I, and Hyaluronidase (Collagenase #C5138, DNase I #D5025, Hyaluronidase #H6254, SigmaAldrich) for at least 2 hours.
(§3) Cells were stained with the fluorescently conjugated surface antibodies and incubated for 30 minutes at 4° C., and then resuspended in staining buffer for flow cytometric analysis. Flow cytometry was done using a Navios EX Flow Cytometer (Beckman Coulter). Data were analyzed using the Kaluza Analysis Software (Beckman Coulter).

[2] = Example 2: body weight of HepG2 tumor bearing humanized mice; settings: for Body Weight: individual animal; for Body Weight (g) Mean: group mean
Experimental: 1. Species: Mus musculus • Strain: Advanced immunodeficiency mouse. • (NOD.CgPrkdc^scid Il2rg) • Source: Trineo Biotechnology Co., LTD.
Each group contains six mice. The human hepatocellular carcinoma cell line HepG2 were subcutaneously inoculated to the advanced immune-deficiency mice. Total of 42 mice were included in this study.
3.1. […] The injection was performed using insulin syringe with the dosage of 0.3 mg/kg or 1 mg/kg and the injection volume was 5 mL/kg. […] The reference item was administered for G1. The procedure followed the standards of sample administration. The starting day of test item administration was denoted as the first experimental day (DO).
3.2. […] The injection was performed using insulin syringe with the dosage of 20 mg/kg and injection volume of 10 mL/kg. […] The procedure followed the standards of sample administration.
The measurement was performed from the next day of the inoculation. The animal body weights were measured and recorded twice per week.

[3] = system: Dendritic cells in tumor-infiltrating lymphocytes; assay: Example 2: flow cytometry, percentage of Dendritic cells in TILs; settings: G2: OBI-3424 (0.3 mg/kg); individual animals and Mean; 0.3 mg/kg
Experimental: as §1, §2, §3

[4] = G2, OBI-3424 0.3 mg/kg, group Mean
[5] = G2, OBI-3424 0.3 mg/kg, individual animal, 0.3 mg/kg
[6] = G3, OBI-3424 1 mg/kg, group Mean
[7] = G3, OBI-3424 1 mg/kg, individual animal, 1 mg/kg

## C[C@H](OP(=O)(N1CC1)N1CC1)c1ccc([N+](=O)[O-])c(Oc2cccc(C(=O)N(C)C)c2)c1 [OBI-3424, (S)-1-(3-(3-N,N-dimethylaminocarbonyl)phenoxyl-4-mtrophenyl)-1-ethyl-N,N′-bis(ethylene)phosphoramidate]
[1]; [4]
  PD-L1^+ cells (CD45^− PD-L1^+), CD45^− Gated %: 9.15%
  PD-L1^+ cells (CD45^− PD-L1^+), Cell count: 4.91 ×10^5
  PD-L1^+ cells (CD45^− PD-L1^+), Total %: 1.95%
  Total PD-L1^+ cells (PD-L1^+), Cell count: 9.60 ×10^5
  Total PD-L1^+ cells (PD-L1^+), Total %: 3.79%
  Total PD-L1^+ cells (PD-L1^+), Total cells Gated %: 5.18%
[1]; [5]
  PD-L1^+ cells (CD45^− PD-L1^+), CD45^− Gated %: 15.51% and 5.86% and 9.64% and 4.13% and 12.53% and 7.23%
  PD-L1^+ cells (CD45^− PD-L1^+), Cell count: 9.41 ×10^5 and 2.07 ×10^5 and 10.69 ×10^5 and 0.07 ×10^5 and 6.63 ×10^5 and 0.61 ×10^5
  PD-L1^+ cells (CD45^− PD-L1^+), Total %: 4.84% and 1.01% and 1.98% and 0.35% and 2.69% and 0.84%
  Total PD-L1^+ cells (PD-L1^+), Cell count: 14.43 ×10^5 and 6.01 ×10^5 and 24.62 ×10^5 and 0.29 ×10^5 and 10.67 ×10^5 and 1.56 ×10^5
  Total PD-L1^+ cells (PD-L1^+), Total %: 7.42% and 2.94% and 4.56% and 1.34% and 4.33% and 2.15%
  Total PD-L1^+ cells (PD-L1^+), Total cells Gated %: 11.84% and 3.97% and 5.50% and 1.44% and 5.16% and 3.16%
[1]; [6]
  PD-L1^+ cells (CD45^− PD-L1^+), CD45^− Gated %: 4.40%
  PD-L1^+ cells (CD45^− PD-L1^+), Cell count: 0.38 ×10^5
  PD-L1^+ cells (CD45^− PD-L1^+), Total %: 0.48%
  Total PD-L1^+ cells (PD-L1^+), Cell count: 1.61 ×10^5
  Total PD-L1^+ cells (PD-L1^+), Total %: 2.08%
  Total PD-L1^+ cells (PD-L1^+), Total cells Gated %: 2.24%
[1]; [7]
  PD-L1^+ cells (CD45^− PD-L1^+), CD45^− Gated %: 4.18% and 2.31% and 4.37% and 7.16% and 4.63%
  PD-L1^+ cells (CD45^− PD-L1^+), Cell count: 0.08 ×10^5 and 0.30 ×10^5 and 0.41 ×10^5 and 0.51 ×10^5 and 0.49 ×10^5 and 0.47 ×10^5
  PD-L1^+ cells (CD45^− PD-L1^+), Total %: 0.27% and 0.24% and 0.58% (2×) and 0.52% and 0.66%
  Total PD-L1^+ cells (PD-L1^+), Cell count: 0.46 ×10^5 and 1.50 ×10^5 and 2.03 ×10^5 and 1.69 ×10^5 and 1.67 ×10^5 and 2.32 ×10^5
  Total PD-L1^+ cells (PD-L1^+), Total %: 1.58% and 1.19% and 2.88% and 1.71% and 2.24% and 2.86%
  Total PD-L1^+ cells (PD-L1^+), Total cells Gated %: 1.66% and 1.26% and 3.32% and 1.80% and 2.39% and 3.03%
[2]; Example 2, until Day 30
  body weight (in words): Body weight loss was not seen
[2]; G2: OBI-3424 0.3 mg/kg, D2 after test item administration, 0.3 mg/kg
  Body Weight: 22.12 g
[2]; G2: OBI-3424 0.3 mg/kg, D6 after test item administration, 0.3 mg/kg
  Body Weight: 24.82 g
[2]; G2: OBI-3424 0.3 mg/kg, D9 after test item administration, 0.3 mg/kg
  Body Weight: 20.84 g and 24.58 g
[2]; G2: OBI-3424 0.3 mg/kg, D13 after test item administration, 0.3 mg/kg
  Body Weight: 23.96 g and 24.87 g
[2]; G2: OBI-3424 0.3 mg/kg, D16 after test item administration, 0.3 mg/kg
  Body Weight: 24.02 g and 24.56 g and 24.17 g
[2]; G2: OBI-3424 0.3 mg/kg, D20 after test item administration, 0.3 mg/kg
  Body Weight: 22.00 g and 24.21 g and 23.98 g
[2]; G2: OBI-3424 0.3 mg/kg, D23 after test item administration, 0.3 mg/kg
  Body Weight: 23.98 g
[2]; G2: OBI-3424 0.3 mg/kg, D30 after test item administration
  Body Weight (g) Mean: 22.06 g
[2]; G2: OBI-3424 0.3 mg/kg, D30 after test item administration, 0.3 mg/kg
  Body Weight: 20.17 g and 21.65 g
[2]; G2: OBI-3424 0.3 mg/kg, L0 after tumor cell injection, 0.3 mg/kg
  Body Weight: 20.66 g and 23.04 g and 25.00 g
[2]; G2: OBI-3424 0.3 mg/kg, L1 after tumor cell injection, 0.3 mg/kg
  Body Weight: 23.02 g
[2]; G2: OBI-3424 0.3 mg/kg, L3 after tumor cell injection
  Body Weight (g) Mean: 22.99 g
[2]; G2: OBI-3424 0.3 mg/kg, L7 after tumor cell injection, 0.3 mg/kg
  Body Weight: 23.01 g
[2]; G3: OBI-3424 1 mg/kg, D2 after test item administration, 1 mg/kg
  Body Weight: 20.20 g and 24.22 g
[2]; G3: OBI-3424 1 mg/kg, D6 after test item administration, 1 mg/kg
  Body Weight: 24.90 g
[2]; G3: OBI-3424 1 mg/kg, D9 after test item administration, 1 mg/kg
  Body Weight: 22.01 g and 24.85 g
[2]; G3: OBI-3424 1 mg/kg, D13 after test item administration, 1 mg/kg
  Body Weight: 25.97 g
[2]; G3: OBI-3424 1 mg/kg, D20 after test item administration, 1 mg/kg
  Body Weight: 24.21 g and 25.53 g and 21.98 g
[2]; G3: OBI-3424 1 mg/kg, D23 after test item administration
  Body Weight (g) Mean: 24.04 g
[2]; G3: OBI-3424 1 mg/kg, D23 after test item administration, 1 mg/kg
  Body Weight: 23.02 g and 25.37 g
[2]; G3: OBI-3424 1 mg/kg, D30 after test item administration, 1 mg/kg
  Body Weight: 22.02 g
[2]; G3: OBI-3424 1 mg/kg, L0 after tumor cell injection, 1 mg/kg
  Body Weight: 19.46 g
[2]; G3: OBI-3424 1 mg/kg, L3 after tumor cell injection, 1 mg/kg
  Body Weight: 20.70 g and 24.21 g and 20.80 g and 24.01 g
[2]; G3: OBI-3424 1 mg/kg, L7 after tumor cell injection, 1 mg/kg
  Body Weight: 24.22 g and 25.55 g
[3]
  CD86^+ DC cells (CD45^+CD11c^+CD86^+) Cell count: 6.36 ×10^5 and 14.34 ×10^5 and 27.59 ×10^5 and 1.25 ×10^5 and 15.63 ×10^5 and 4.71 ×10^5
  CD86^+ DC cells (CD45^+CD11c^+CD86^+) Total %: 3.27% and 7.01% and 5.11% and 5.82% and 6.34% and 6.50%
  CD91^+ DC cells (CD45^+CD11c^+CD91^+) Cell count: 0.18 ×10^5 and 0.16 ×10^5 and 0.54 ×10^5 and 0.02 ×10^5 and 0.22 ×10^5 and 0.04 ×10^5
  CD91^+ DC cells (CD45^+CD11c^+CD91^+) Total %: 0.09% (2×) and 0.08% (2×) and 0.10% and 0.06%
  DC cells (CD45^+CD11c^+) CD45+ Gated %: 32.90% and 30.81% and 44.83% and 19.60% and 24.30% and 36.70%
  DC cells (CD45^+CD11c^+) Cell count: 10.62 ×10^5 and 23.35 ×10^5 and 105.79 ×10^5 and 2.74 ×10^5 and 25.44 ×10^5 and 9.18 ×10^5
  DC cells (CD45^+CD11c^+) Total %: 5.46% and 11.42% and 19.59% and 12.80% and 10.32% and 12.66%
